From US8206901B2, “Method for the synthesis of a bifunctional complex” (Nuevolution A/S, priority 2002, dated 2012)

Key:
[1] = molecular target: T1, integrin αv/βIII receptor (Homo sapiens, UniProt P05106+P06756); assay: Selection of 25-member split-and-mix library on immobilised integrin αVβ3, PCR, cloning and sequencing (Example 9); format: binding; details: after selection; 18 successful sequences
T1 construct: purchased Bachem
Description: Maxisorp ELISA wells (NUNC A/S, Denmark) were coated with each 100 μL 2 μg/mL integrin αVβ3 (Bachem) in PBS buffer [2.8 mM NaH2PO4, 7.2 mM Na2HPO4, 0.15 M NaCl, pH 7.2] overnight at 4° C. Then the integrin solution was substituted for 200 μl blocking buffer [TBS, 0.05% Tween 20 (Sigma P-9416), 1% bovine serum albumin (Sigma A-7030), 1 mM MnCl2] which was left on for 1 hour at room temperature. Then the wells were washed 2 times with 250 μl blocking buffer and 5 μl of the encoded library was added to the wells after diluting it 20 times with blocking buffer. Following 2 hours incubation at room temperature the wells were washed with 20×250 μl blocking buffer.
After the final wash the wells were cleared of wash buffer and subsequently inverted and exposed to UV light at 300-350 nm for 30 seconds using a trans-illuminator set at 70% power.
100 μl blocking buffer without Tween-20 was immediately added to each well, the wells were shaken for 30 seconds, and the solutions containing eluted templates were removed for PCR analysis. […]
Individual E. coli clones were picked and transferred to PCR wells containing 50 μl water. Colonies were incubated at 94° C. for 5 minutes and 20 μl was used in a 25 μl PCR reaction with 5 pmol of each TOPO primer M13 forward & M13 reverse (AH365/AH366) and Ready-To-Go PCR beads (Amersham) using PCR program EKO50: 94° C. […]

αv/βIII receptor = αv/βIII receptor (Homo sapiens, UniProt P05106+P06756); details: cited from earlier work
Sequence of αv/βIII receptor (P06756 31-889 limits assumed): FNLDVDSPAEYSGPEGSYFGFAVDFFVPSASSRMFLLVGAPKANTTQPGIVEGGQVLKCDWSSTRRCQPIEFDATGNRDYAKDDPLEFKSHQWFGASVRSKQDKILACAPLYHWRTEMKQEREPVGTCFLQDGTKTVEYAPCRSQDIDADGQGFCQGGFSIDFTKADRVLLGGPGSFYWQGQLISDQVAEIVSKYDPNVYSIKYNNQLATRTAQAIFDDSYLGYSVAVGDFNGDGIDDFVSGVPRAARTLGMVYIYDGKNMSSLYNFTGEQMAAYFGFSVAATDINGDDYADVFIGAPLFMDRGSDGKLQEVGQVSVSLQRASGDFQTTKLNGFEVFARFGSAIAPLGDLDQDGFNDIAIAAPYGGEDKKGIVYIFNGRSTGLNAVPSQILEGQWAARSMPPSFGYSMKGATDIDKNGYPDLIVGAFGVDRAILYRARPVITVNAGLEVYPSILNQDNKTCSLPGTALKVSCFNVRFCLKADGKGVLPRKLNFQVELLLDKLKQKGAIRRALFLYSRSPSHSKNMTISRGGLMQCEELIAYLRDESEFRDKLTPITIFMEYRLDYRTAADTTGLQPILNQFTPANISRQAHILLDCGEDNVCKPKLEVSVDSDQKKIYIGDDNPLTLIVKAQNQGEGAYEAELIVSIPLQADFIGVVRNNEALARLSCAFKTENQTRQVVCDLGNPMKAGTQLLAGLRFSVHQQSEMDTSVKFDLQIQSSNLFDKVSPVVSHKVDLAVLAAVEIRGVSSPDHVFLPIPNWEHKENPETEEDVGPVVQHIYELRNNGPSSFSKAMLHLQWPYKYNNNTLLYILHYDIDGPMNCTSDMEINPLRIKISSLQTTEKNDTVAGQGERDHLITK
Sequence of αv/βIII receptor (P06756 891-1048 partner limits assumed): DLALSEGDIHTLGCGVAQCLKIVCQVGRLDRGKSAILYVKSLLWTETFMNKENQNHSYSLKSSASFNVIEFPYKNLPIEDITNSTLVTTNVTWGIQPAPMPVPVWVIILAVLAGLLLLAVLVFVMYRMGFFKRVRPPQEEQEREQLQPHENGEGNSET
Sequence of αv/βIII receptor (P05106 27-788): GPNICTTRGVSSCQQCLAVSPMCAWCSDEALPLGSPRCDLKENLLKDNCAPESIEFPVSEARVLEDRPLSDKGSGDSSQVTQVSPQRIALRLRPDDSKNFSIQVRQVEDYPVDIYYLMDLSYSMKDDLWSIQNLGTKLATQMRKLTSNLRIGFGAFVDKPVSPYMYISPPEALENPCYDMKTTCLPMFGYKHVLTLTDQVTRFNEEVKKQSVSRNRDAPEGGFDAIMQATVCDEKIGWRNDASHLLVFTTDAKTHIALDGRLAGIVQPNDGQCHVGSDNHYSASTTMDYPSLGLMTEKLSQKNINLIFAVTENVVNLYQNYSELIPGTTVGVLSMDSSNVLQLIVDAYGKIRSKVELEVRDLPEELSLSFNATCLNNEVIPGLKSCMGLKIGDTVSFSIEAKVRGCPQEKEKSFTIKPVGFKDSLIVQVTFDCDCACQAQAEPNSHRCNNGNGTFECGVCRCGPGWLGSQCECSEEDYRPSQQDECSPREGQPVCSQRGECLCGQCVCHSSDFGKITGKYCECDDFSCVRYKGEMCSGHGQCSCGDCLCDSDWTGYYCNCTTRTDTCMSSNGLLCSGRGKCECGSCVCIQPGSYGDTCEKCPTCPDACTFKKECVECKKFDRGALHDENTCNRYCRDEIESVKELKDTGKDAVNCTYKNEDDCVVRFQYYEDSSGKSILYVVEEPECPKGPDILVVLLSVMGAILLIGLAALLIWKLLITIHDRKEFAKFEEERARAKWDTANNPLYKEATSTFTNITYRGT

T1 sequence (P06756 31-889 limits assumed): as the sequence (P06756 31-889 limits assumed) above
T1 sequence (P06756 891-1048 partner limits assumed): as the sequence (P06756 891-1048 partner limits assumed) above
T1 sequence (P05106 27-788): as the sequence (P05106 27-788) above

output sequences identifying the exact ligand [1]: 16 out of 18
SMILES: O=C(O)CC(NC(=O)CNC(=O)CCCc1ccc2c(n1)NCCC2)C(=O)O (stereo not drawn) [Feuston 5]
affinity for αv/βIII compared to the RGD-tripeptide (αv/βIII receptor): ten-fold increased affinity
Kd (αv/βIII receptor; αv/βIII): 111 nM
